Reference: ChEMBL document CHEMBL2311255, “Discovery of alkenylboronic acids as neuroprotective agents affecting multiple biological targets involved in Alzheimer's disease” (Bioorg Med Chem Lett, 2013)
pIC50: −log10 of the molar value. The source made the active and inactive calls. The calls are words filed in the database; no cut-off is given here.

Columns and labels:
[1] = Cytotoxicity against human APP695-transfected SH-SY5Y cells at 10 uM after 24 hrs by MTT assay; format: cell-based
[2] = test system: SH-SY5Y; test: Neuroprotective activity in human APP695-transfected SH-SY5Y cells assessed as inhibition of H2O2-induced ROS production at 5 uM after 60 mins by DCFA-DA assay; format: functional; conditions: 1 h
[3] = test system: Acetylcholinesterase; test: Inhibition of AChE (unknown origin) measured for 3 mins by Ellman colorimetric method; conditions: Homo sapiens
[4] = test system: SH-SY5Y; test: Neuroprotective activity in human APP695-transfected SH-SY5Y cells assessed as GSH-glutathione disulfide level after 16 hrs (reference value: 4.71 +/- 0.48 nmol/mg); format: functional
[5] = test system: SH-SY5Y; test: Neuroprotective activity in human APP695-transfected SH-SY5Y cells assessed as increase of glutathione level after 16 hrs (reference value: 17.79 +/- 1.59 nmol/mg); format: functional
[6] = test system: SH-SY5Y; test: Neuroprotective activity in human APP695-transfected SH-SY5Y cells assessed as inhibition of ROS production at 5 uM after 60 mins by DCFA-DA assay; format: functional, cell-based
[7] = test system: SH-SY5Y; test: Neuroprotective activity in human APP695-transfected SH-SY5Y cells assessed as H2O2-induced GSH-glutathione disulfide level after 16 hrs (reference value: 6.85 +/- 0.92 nmol/mg); format: functional
[8] = test system: SH-SY5Y; test: Neuroprotective activity in human APP695-transfected SH-SY5Y cells assessed as inhibition of H2O2-induced decrease in glutathione level after 16 hrs (reference value: 22.95 +/- 0.59 nmol/mg); format: functional
[9] = test system: SH-SY5Y; test: Neuroprotective activity in human APP695-transfected SH-SY5Y cells assessed as decrease of H2O2-induced malondialdehyde level after 16 hrs (reference value: 67.83 +/- 5.86 nmol/mg); format: functional
[10] = test system: SH-SY5Y; test: Neuroprotective activity in human APP695-transfected SH-SY5Y cells assessed as decrease of malondialdehyde level after 16 hrs (reference value: 52 +/- 1.84 nmol/mg); format: functional
[11] = target: Beta-secretase 1 (Homo sapiens, UniProt P56817); test: Inhibition of human recombinant BACE using H-RE-(EDANS)EVNLDAEFK(DABCYL)R-OH as substrate preincubated for 1 hr before addition of substrate measured after 1 hr
Chain of Beta-secretase 1 (P56817 whole entry): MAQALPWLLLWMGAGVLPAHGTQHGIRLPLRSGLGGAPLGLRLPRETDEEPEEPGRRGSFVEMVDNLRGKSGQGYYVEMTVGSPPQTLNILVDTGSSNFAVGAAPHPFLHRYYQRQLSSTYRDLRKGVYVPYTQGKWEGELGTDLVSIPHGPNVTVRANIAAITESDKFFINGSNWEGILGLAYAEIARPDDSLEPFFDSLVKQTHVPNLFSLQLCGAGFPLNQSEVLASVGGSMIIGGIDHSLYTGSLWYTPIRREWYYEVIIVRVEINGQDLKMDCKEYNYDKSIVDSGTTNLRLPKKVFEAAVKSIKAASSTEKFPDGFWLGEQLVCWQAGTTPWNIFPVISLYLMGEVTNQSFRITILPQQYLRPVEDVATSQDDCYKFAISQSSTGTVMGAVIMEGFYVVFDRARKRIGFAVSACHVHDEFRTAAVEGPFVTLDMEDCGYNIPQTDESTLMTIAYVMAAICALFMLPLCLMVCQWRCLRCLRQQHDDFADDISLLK

[12] = test system: SH-SY5Y; test: Neuroprotective activity in human APP695-transfected SH-SY5Y cells assessed as inhibition of H2O2-induced increase of caspase-3 activity after 60 mins by fluorescence assay; format: functional
[13] = target: Amyloid-beta precursor protein (Homo sapiens) (UniProt P05067); test: Inhibition of beta amyloid (25 to 35) (unknown origin) disaggregation after 4 days by thioflavin-T fluorescence analysis
Chain of Amyloid-beta precursor protein (Homo sapiens) (P05067 whole entry): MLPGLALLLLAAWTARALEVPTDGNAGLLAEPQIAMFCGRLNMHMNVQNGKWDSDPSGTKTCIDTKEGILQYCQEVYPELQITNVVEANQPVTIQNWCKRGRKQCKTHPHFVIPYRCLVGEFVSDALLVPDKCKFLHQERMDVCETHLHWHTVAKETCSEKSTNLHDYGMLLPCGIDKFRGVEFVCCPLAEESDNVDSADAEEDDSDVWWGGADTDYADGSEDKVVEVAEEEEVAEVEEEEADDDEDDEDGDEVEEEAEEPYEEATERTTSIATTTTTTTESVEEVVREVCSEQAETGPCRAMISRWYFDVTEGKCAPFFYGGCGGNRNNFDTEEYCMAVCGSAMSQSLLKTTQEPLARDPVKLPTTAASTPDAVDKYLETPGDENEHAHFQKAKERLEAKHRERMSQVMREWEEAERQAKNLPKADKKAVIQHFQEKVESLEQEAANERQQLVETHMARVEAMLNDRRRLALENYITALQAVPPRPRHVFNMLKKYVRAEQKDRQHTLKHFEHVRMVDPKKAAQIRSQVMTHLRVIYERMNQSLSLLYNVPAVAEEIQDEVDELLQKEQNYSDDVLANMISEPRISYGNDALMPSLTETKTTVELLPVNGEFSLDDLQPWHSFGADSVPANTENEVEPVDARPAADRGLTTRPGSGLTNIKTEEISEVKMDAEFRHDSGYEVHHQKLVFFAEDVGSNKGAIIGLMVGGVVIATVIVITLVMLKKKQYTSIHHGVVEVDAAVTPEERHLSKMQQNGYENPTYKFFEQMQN

[14] = target: Amyloid-beta precursor protein (Homo sapiens) (UniProt P05067); test: Inhibition of beta amyloid (25 to 35) (unknown origin) aggregation after 4 days by thioflavin-T fluorescence analysis
[15] = test system: SH-SY5Y; test: Neuroprotective activity in human APP695-transfected SH-SY5Y cells assessed as inhibition of H2O2-induced ROS production after 60 mins by DCFA-DA assay; format: functional, cell-based; conditions: 1 h

Compound	Activity [1]	inhibition at 5 µM [2]	inhibition [3]	Activity [4]	Activity [5]	inhibition [6]	Activity [7]	Activity [8]	Activity [9]	Activity [10]	pIC50 [11]	inhibition (INH) [12]	Activity [13]	Activity [14]	pIC50 [15]
OB(O)c1ccccc1 [PHENYLBORONIC ACID]	Non-toxic	< 50%	inactive	5.85 nmol/mg	28.62 nmol/mg	inactive	4.85 nmol/mg	28.01 nmol/mg	52.78 nmol/mg	40.75 nmol/mg					
COc1ccc(/C=C/B(O)O)cc1	Non-toxic	< 50%	inactive	4.56 nmol/mg	26.2 nmol/mg	inactive	6 nmol/mg	26.05 nmol/mg	58.76 nmol/mg	44.35 nmol/mg					
COc1cc(/C=C/B(O)O)cc(OC)c1	Non-toxic	< 50%	inactive	4.7 nmol/mg	23.11 nmol/mg	inactive	6.23 nmol/mg	32.03 nmol/mg	74.75 nmol/mg	42.79 nmol/mg					
CC1(C)OB(/C=C/c2ccccc2)OC1(C)C	Non-toxic	< 50%	inactive	3.87 nmol/mg	34.74 nmol/mg	inactive	4.89 nmol/mg	37.04 nmol/mg	51.76 nmol/mg	40.71 nmol/mg					
CC1(C)OB(/C=C/c2ccc(F)cc2F)OC1(C)C	Non-toxic	< 50%	inactive	5.33 nmol/mg	31.51 nmol/mg	inactive	6.06 nmol/mg	34.77 nmol/mg	53.1 nmol/mg	39.76 nmol/mg					
CN1CC(=O)OB(/C=C/c2ccccc2)OC(=O)C1	Non-toxic	< 50%	inactive	6.11 nmol/mg	35.2 nmol/mg	inactive	5.01 nmol/mg	39.38 nmol/mg	57.54 nmol/mg	41.96 nmol/mg	3.87				
CCCCC/C=C/B(O)O	Non-toxic	< 50%	inactive	4.65 nmol/mg	27.35 nmol/mg	inactive	3.94 nmol/mg	27.22 nmol/mg	59.21 nmol/mg	40.34 nmol/mg					
COc1cc(/C=C/B2OC(C)(C)C(C)(C)O2)cc(OC)c1	Non-toxic	< 50%	inactive	4.49 nmol/mg	25.36 nmol/mg	inactive	4.53 nmol/mg	27.98 nmol/mg	53.36 nmol/mg	48.18 nmol/mg					
OB(O)/C=C/c1ccc(F)cc1	Non-toxic	< 50%	inactive	4.75 nmol/mg	28.19 nmol/mg	inactive	4.58 nmol/mg	27.42 nmol/mg	52.64 nmol/mg	37.73 nmol/mg		>50%			
OB(O)c1ccc(C(F)(F)F)cc1	Non-toxic	< 50%	inactive	5.76 nmol/mg	23.32 nmol/mg	inactive	5.85 nmol/mg	26.59 nmol/mg	73.23 nmol/mg	45.36 nmol/mg					
CC1(C)OB(/C=C/c2cccc(C(F)(F)F)c2)OC1(C)C	Non-toxic	< 50%	inactive	5.53 nmol/mg	33.77 nmol/mg	inactive	4.75 nmol/mg	43.29 nmol/mg	45.55 nmol/mg	44.03 nmol/mg		>50%			
OB(O)/C=C/c1ccccc1 [STYRYLBORONIC ACID]	Non-toxic		inactive	4.6 nmol/mg	21.84 nmol/mg	inactive	4.25 nmol/mg	30.62 nmol/mg	53.23 nmol/mg	42.22 nmol/mg			inactive	inactive	5.09
OB(O)/C=C/c1ccc(C(F)(F)F)cc1	Non-toxic		inactive	4.3 nmol/mg	31.48 nmol/mg	inactive	4.47 nmol/mg	27.02 nmol/mg	38.23 nmol/mg	35.67 nmol/mg		>50%	inactive	inactive	5.55
OB(O)/C=C/C1CCCCC1	Non-toxic	< 50%	inactive	4.37 nmol/mg	24.06 nmol/mg	inactive	6.03 nmol/mg	35.58 nmol/mg	45.38 nmol/mg	37.12 nmol/mg		>50%			
